The source made the active and inactive calls. The calls are words filed in the database; no cut-off is given here.
System: Lactobacillus acidophilus
Experiment: Prebiotic activity in Lactobacillus acidophilus in simulated intestinal fluid after 1 to 3 hrs
Type: functional

SMILES | Activity
OC[C@H]1O[C@@H](O[C@H]2[C@H](O)[C@H](O)CO[C@]2(O)CO)[C@H](O)[C@@H](O)[C@H]1O | Active
OC[C@H]1O[C@@H](O[C@@H]2[C@H](O)CO[C@](O)(CO)[C@H]2O)[C@H](O)[C@@H](O)[C@H]1O | Active

Reference: ChEMBL document CHEMBL3779794, “Efficient synthesis and activity of beneficial intestinal flora of two lactulose-derived oligosaccharides” (Eur J Med Chem, 2016)
